Data as given in US20060025474A1, “Bisphenyl compounds useful as vitamin D3 receptor agonists” (priority 2004, published 2006).

Assays:
[1] = test system: ECAC2 mRNA in Caco-2 cells; type: cell-based
Outline: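 Caco-2 cells grown 4 days, then exposed 1 day at 37° C to compounds in medium with 10% FBS, refreshed twice daily. ECAC2 mRNA by one-step TaqMan RT-PCR, normalized to GAPDH. EC50 from Emax model, expressed as ratio to LG190178 EC50.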

[2] = test system: ovariectomized (OVX) rats; assay: Bone mineral density in the ovariectomized (OVX) rats (1); type: in vivo, Sprague-Dawley rats; details: orally five times a week for 4 weeks; for Spinal BMD: L2-L4
Protocol: Bone Mineral Density in the Ovariectomized (OVX) Rats (1)
The compounds of the present invention were prepared as exemplified above, dissolved in a vehicle (medium chain triglyceride, MCT) and diluted to a given concentration. The stock solutions were protected from light and stored at 4° C.
Eight-month-old female Sprague-Dawley (Crl:CD(SD)) rats were purchased from Charles River Japan Inc. (Kanagawa, Japan) and acclimated under standard laboratory conditions at 24±2° C. and 50-60% humidity. The rats were allowed free access to tap water and commercial standard rodent chow CE-2 (Clea Japan Inc., Japan).
Sham-operated (n=8) and the ovariectomized (OVX) rats were used. The OVX rats were divided into each group (n=8) one day after the surgery. In the sham and OVX control groups, rats received the vehicle (MCT) p.o. at a dose of 1 ml/kg body weight (BW) five times a week. Each compound was given orally five times a week for 4 weeks. These animal studies were carried out in accordance with Chugai Pharmaceutical's ethical guidelines for animal care, and the experimental protocols were approved by the animal care committee of the institution.
During the 24 hours from the last administration, urine was collected with metabolic cage, and blood was drawn from the abdominal aorta under ether anesthesia. Blood and urine samples were centrifuged to obtain the supernatant, which were stored at −20° C. until assay. The lumbar vertebrae and femur were removed. The lumbar vertebra and the right femur were stored in 70% ethanol at 4° C. for the measurement of bone mineral density (BMD).
Serum and Urine Biochemistry
Serum calcium (Ca) and inorganic phosphorus (Pi) concentrations were measured with an autoanalyzer (Hitachi 7170, Tokyo, Japan). The serum osteocalcin concentration was measured with Osteocalcin rat ELISA system (Amersham Pharmacia Biotech, Tokyo, Japan). Urinary Ca, Pi, and creatinine (Cre) were measured with an autoanalyzer. Urinary deoxypyridinoline (D-Pyr) was measured using a Metra DPD EIA kit (Quidel Co., USA), and the data were corrected for urinary Cre concentrations.
Measurement of Bone Mineral Density
The second through fourth lumbar vertebaral (L2-L4) BMD (mg/cm^2) and femoral BMD were measured by dual-energy X-ray absorptiometry (DCS-600-EX, Aloka, Japan).

SMILES	ECaC-2 mRNA induction activity in Caco-2 cells [1] [%]	serum Ca ([2]; 7.5 microgram/kg/week) [mg/dL]	Spinal BMD ([2]; 7.5 microgram/kg/week) [mg/cm2]	serum Ca ([2]; 0.75 microgram/kg/week) [mg/dL]	Spinal BMD ([2]; 0.75 microgram/kg/week) [mg/cm2]
CCC(CC)(c1ccc(CCC(O)C(C)(C)C)c(C)c1)c1ccc(OC[C@H](O)CCC(=O)[O-])c(C)c1.[Na+] (stereo partly drawn) [Example 141, 5-(4-{1-Ethyl-1-[4-(3-hydroxy4,4-dimethyl-pentyl)-3-methyl-phenyl]-propyl}-2-methyl-phenoxy)4(R)-hydroxy-pentanoic acid sodium salt]	31	10.1	184.4		
CCC(CC)(c1ccc(CCC(O)C(C)(C)C)c(C)c1)c1ccc(OC[C@H](O)CCC(=O)[O-])c(C)c1.[Na+] (stereo partly drawn) [Example 140, 5-(4-{1-Ethyl-1-[4-(3-hydroxy-4,4-dimethyl-pentyl)-3-methyl-phenyl]-propyl}-2-methyl-phenoxy)-4(R)-hydroxy-pentanoic acid sodium salt]	53			10.0	186.6
